One assay deals with NIH:OVCAR-3 cells. The experiment in a line: Cell viability of KIF18a-sensitive cell lines, NIH:OVCAR-3 (Cell Titre-Glo, 7 days). The class given is cell-based. The following applies: Homo sapiens, OVCAR-3, 168 h; NIH:OVCAR3, 7 days; read-out: NIH:OVCAR3 IC50. As for the experimental part:
(§1) Cell lines were seeded as follows 24 hours before compound treatment: HCC15 (Korean Cell Line Bank) 600 cell/well, 95 μL of RPMI-1640 media supplemented with 100 units/mL penicillin, 100 units/mL streptomycin and 10% FBS; NIH:OVCAR-3 (ATCC), 1000 cell/well, 95 μL of RPMI-1640 media supplemented with 100 units/mL penicillin, 100 units/mL streptomycin, 0.01 mg/mL bovine insulin, and 20% FBS; JIMT-1 (Addexbio) 1000 cell/well, 95 μL of DMEM media supplemented with 100 units/mL penicillin, 100 units/mL streptomycin, and 10% FBS.
(§2) Test compounds were added to cells in a 20× dilution scheme by adding 5 μL of serially diluted compound to the plate, and the treated cells were incubated for an additional 7 days in a 37° C., 5% CO2 incubator. DMSO was used as the negative control (0% effect), and wells omitting cells were used as the positive control (100% effect). The cells were incubated for seven days, and cell viability determined via the Promega Cell Titre-Glo® Assay kit. Luminescence units were converted to ATP concentrations via an ATP standard curve (10 point, 2-fold dilution from 5 uM). % Inhibition was calculated for each well as: ([max−min]−[test−min])/[max−min]. IC50 values were calculated from concentration vs. % Inhibition data via a four-parameter variable slope model.

The next assay relates to HCC15 cells. The experiment in a line: Cell viability of KIF18a-sensitive cell lines, HCC15 (Cell Titre-Glo, 7 days). The class given is cell-based. The conditions noted are these: 168 h; HCC15, 7 days; read-out: HCC15 IC50. As for the experimental part:
as §1, §2

The target in another assay is hKIF18A (1-374) (Homo sapiens (Human), UniProt Q8NI77). The experiment in a line: Inhibition of KIF18A microtubule-dependent ATPase activity (ADP-Glo). The class given is biochemical. The following applies: 4 nM hKIF18A (1-374). In outline:
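Reaction was started with pre-formed microtubules and ATP (0.2 mg/mL and 2.0 mM in the added mix) and run 60 min at 28 °C. ADP was read by ADP-Glo luminescence, and IC50 came from a four-parameter fit of % inhibition.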

The test system of a further assay is JIMT-1 cells. The assay is described as follows: Cell viability of KIF18a-sensitive cell lines, JIMT-1 (Cell Titre-Glo, 7 days). The class given is cell-based. The following applies: Homo sapiens, 168 h; JIMT-1, 7 days; read-out: JIMT-1 IC50. As for the experimental part: as §1, §2
The target in assay [1] is KIF18a-microtubule complex (Homo sapiens (Human), UniProt Q8NI77). The assay is described as follows: Binding kinetics to KIF18a-microtubule complex (global progress curve analysis). The conditions noted are these: for kon (on-rate from binding kinetics assay) / koff: KIF18A 0.25 nM, up to 24 hr; for koff: read-out: koff (off-rate from binding kinetics assay) (converted); for Ki: koff/kon, read-out: KI (determined from binding kinetic assay koff/kon). As for the experimental part: Compound binding kinetics parameters (kon and koff) were determined by the method of global progress curve analysis (GPCA). […] ADP product levels were determined by the Promega® ADP-Glo assay.

This is an account of results in patent publication US20230382889A1 (Volastra Therapeutics, Inc., priority 2022, published 2023).

Sequence of KIF18a-microtubule complex (Q8NI77 1-374, one chain of several): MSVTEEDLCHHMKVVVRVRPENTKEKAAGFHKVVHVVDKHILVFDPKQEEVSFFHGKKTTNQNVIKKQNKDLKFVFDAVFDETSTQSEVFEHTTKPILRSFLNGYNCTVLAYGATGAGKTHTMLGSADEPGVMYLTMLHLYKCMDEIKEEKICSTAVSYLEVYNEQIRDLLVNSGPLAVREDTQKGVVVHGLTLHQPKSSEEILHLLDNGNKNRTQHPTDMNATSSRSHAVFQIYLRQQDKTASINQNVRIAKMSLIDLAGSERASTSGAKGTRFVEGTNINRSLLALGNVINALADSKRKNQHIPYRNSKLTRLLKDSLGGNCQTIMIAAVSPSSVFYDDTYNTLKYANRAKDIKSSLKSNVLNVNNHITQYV
Sequence of hKIF18A (1-374) (Q8NI77 1-374): as the sequence (Q8NI77 1-374, one chain of several) above

As to `CS(=O)(=O)Nc1ccc(-c2ncc(-c3cccc(N4CCC(F)(F)CC4)n3)[nH]2)c(N2CCC3(CC2)CC3)c1` [Compound 9, N-(4-(5-(6-(4,4-difluoropiperidin-1-yl)pyridin-2-yl)-1H-imidazol-2-yl)-3-(6-azaspiro[2.5]octan-6-yl)phenyl)methanesulfonamide], in the assay with NIH:OVCAR-3 cells, the half-maximal inhibitory concentration (IC50) is 200 nM. The IC50 in the assay with HCC15 cells is 110 nM. At hKIF18A (1-374), this compound came in with an IC50 of 21 nM. Further, in the assay on JIMT-1 cells, the 50% inhibitory concentration (IC50) worked out at 100 nM. Besides, in assay [1], the “kon (on-rate from binding kinetics assay)” value (from here on “kon”) was determined as 6670 M⁻¹ s⁻¹, the dissociation rate constant (koff) is 5.83e-05 s⁻¹, the Ki amounted to 8.7 nM and the “disc. t1/2 (dissociation half-life ln(2)/koff)” value turned out to be 3.3 h.

Consider `CS(=O)(=O)Nc1ccc(-c2ncc(-c3cccc(N4CCOCC4)n3)[nH]2)c(N2CCC3(CC2)CC3)c1` [Compound 10, N-(4-(5-(6-morpholinopyridin-2-yl)-1H-imidazol-2-yl)-3-(6-azaspiro[2.5]octan-6-yl)phenyl)methanesulfonamide], for which the IC50 with NIH:OVCAR-3 cells worked out at 210 nM. Also, the half-maximal inhibitory concentration (IC50) in the assay with HCC15 cells turned out to be 120 nM. This compound returned a concentration for half-maximal inhibition (IC50) at hKIF18A (1-374) of 9.2 nM. For the same compound, the IC50 in the assay with JIMT-1 cells stood at 130 nM. Also, in assay [1], the “kon” value was found to be 4720 M⁻¹ s⁻¹, the koff was 6.67e-05 s⁻¹, the Ki is 14 nM and the “disc. t1/2 (dissociation half-life ln(2)/koff)” value worked out at 2.9 h.

On to `CS(=O)(=O)Nc1ccc(-n2cc(-c3cccc(N4CCC(F)(F)CC4)n3)nn2)c(N2CCC3(CC2)CC3)c1` [Compound 11, N-(4-(4-(6-(4,4-difluoropiperidin-1-yl)pyridin-2-yl)-1H-1,2,3-triazol-1-yl)-3-(6-azaspiro[2.5]octan-6-yl)phenyl)methanesulfonamide], for which, in the assay on NIH:OVCAR-3 cells, the IC50 stood at 23 nM. The IC50 in the assay on HCC15 cells is 13 nM. Further, the 50% inhibitory concentration (IC50) against hKIF18A (1-374) was found to be 23 nM. For the same compound, the IC50 in the assay with JIMT-1 cells amounted to 9.1 nM. In assay [1], the “kon” value worked out at 36100 M⁻¹ s⁻¹, the koff is 4.44e-06 s⁻¹, the Ki was 0.13 nM and the “disc. t1/2 (dissociation half-life ln(2)/koff)” value was found to be 43 h.

Turning to `CS(=O)(=O)Nc1ccc(-n2cc(-c3cccc(N4CCC(F)(F)CC4)n3)nn2)c(N2CCCCC2)c1` [Compound 15, N-(4-(4-(6-(4,4-difluoropiperidin-1-yl)pyridin-2-yl)-1H-1,2,3-triazol-1-yl)-3-(piperidin-1-yl)phenyl)methanesulfonamide], in the assay with NIH:OVCAR-3 cells, the IC50 turned out to be 18 nM. Moreover, the concentration for half-maximal inhibition (IC50) in the assay on HCC15 cells came to 12 nM. The same compound yielded an IC50 against hKIF18A (1-374) of 6.6 nM. Moreover, in the assay on JIMT-1 cells, the IC50 stood at 12 nM. In assay [1], the “kon” value is 21900 M⁻¹ s⁻¹, the dissociation rate constant (koff) is 1.14e-05 s⁻¹, the Ki was determined as 0.52 nM and the “disc. t1/2 (dissociation half-life ln(2)/koff)” value is given as 17 h.

Turning to `O=S(=O)(CCO)Nc1ccc(-n2cc(-c3cccc(N4CCC(F)(F)CC4)n3)nn2)c(N2CCC3(CC2)CC3)c1` [Compound 45, N-(4-(4-(6-(4,4-difluoropiperidin-1-yl)pyridin-2-yl)-1H-1,2,3-triazol-1-yl)-3-(6-azaspiro[2.5]octan-6-yl)phenyl)-2-hydroxyethane-1-sulfonamide], in the assay on NIH:OVCAR-3 cells, the IC50 turned out to be 5.5 nM. In the assay on HCC15 cells, the IC50 is 3.9 nM. On hKIF18A (1-374), this compound yielded a 50% inhibitory concentration (IC50) of 6.6 nM. Also, the half-inhibitory concentration (IC50) with JIMT-1 cells is 6.9 nM. Moreover, in assay [1], the “kon” value was determined as 30600 M⁻¹ s⁻¹, the koff is 6.67e-06 s⁻¹, the Ki is 0.21 nM and the “disc. t1/2 (dissociation half-life ln(2)/koff)” value is listed as 28 h.

Regarding `Cc1cc(-c2cn(-c3ccc(NS(=O)(=O)CCO)cc3N3CCCCC3)nn2)nc(N2CCC(F)(F)CC2)n1` [Compound 67, N-(4-(4-(2-(4,4-difluoropiperidin-1-yl)-6-methylpyrimidin-4-yl)-1H-1,2,3-triazol-1-yl)-3-(piperidin-1-yl)phenyl)-2-hydroxyethane-1-sulfonamide], the half-inhibitory concentration (IC50) in the assay on NIH:OVCAR-3 cells was determined as 47 nM. In addition, the IC50 with HCC15 cells is 51 nM. Besides, half-maximal inhibition at hKIF18A (1-374) (IC50) was put at 22 nM. Further, the half-inhibitory concentration (IC50) in the assay on JIMT-1 cells amounted to 66 nM. In assay [1], the “kon” value was 12200 M⁻¹ s⁻¹, the koff is 2.06e-05 s⁻¹, the Ki was determined as 1.7 nM and the “disc. t1/2 (dissociation half-life ln(2)/koff)” value turned out to be 9.4 h.

Consider `Cc1cc(-n2cc(-c3ccc(NS(=O)(=O)CCO)cc3N3CCC4(CC3)CC4)nn2)nc(N2CC3C(C2)C3(F)F)n1` (centres unmarked) [Compound 97, N-(4-(1-(2-(6,6-difluoro-3-azabicyclo[3.1.0]hexan-3-yl)-6-methylpyrimidin-4-yl)-1H-1,2,3-triazol-4-yl)-3-(6-azaspiro[2.5]octan-6-yl)phenyl)-2-hydroxyethane-1-sulfonamide], for which the half-inhibitory concentration (IC50) in the assay with NIH:OVCAR-3 cells stood at 72 nM; in the assay with HCC15 cells it was 37 nM; on hKIF18A (1-374) it was 36 nM; in the assay with JIMT-1 cells it was 110 nM.

For the compound `O=S(=O)(CCO)Nc1ccc(-n2cc(-c3cccc(OC4CCCC4)n3)nn2)c(N2CCC3(CC2)CC3)c1` [Compound 100, N-(4-(4-(6-(cyclopentyloxy)pyridin-2-yl)-1H-1,2,3-triazol-1-yl)-3-(6-azaspiro[2.5]octan-6-yl)phenyl)-2-hydroxyethane-1-sulfonamide], the IC50 in the assay on NIH:OVCAR-3 cells is 80 nM; in the assay with HCC15 cells, 45 nM; against hKIF18A (1-374) it was 11 nM; in the assay with JIMT-1 cells, 60 nM.

Consider `Cc1cc(-c2cn(-c3ccc(NS(=O)(=O)CCO)cc3N3CCC4(CC3)CC4)nn2)nc(N2CCCCC2)n1` [Compound 101, 2-hydroxy-N-(4-(4-(6-methyl-2-(piperidin-1-yl)pyrimidin-4-yl)-1H-1,2,3-triazol-1-yl)-3-(6-azaspiro[2.5]octan-6-yl)phenyl)ethane-1-sulfonamide], for which the IC50 with NIH:OVCAR-3 cells amounted to 27 nM; with HCC15 cells, 16 nM; on hKIF18A (1-374), 17 nM; in the assay with JIMT-1 cells it was 27 nM.

Regarding `CCS(=O)(=O)Nc1ccc(-n2cc(-c3cc(C)nc(N4CCC(F)(F)CC4)n3)nn2)c(N2CCC3(CC2)CC3)c1` [Compound 106, N-(4-(4-(2-(4,4-difluoropiperidin-1-yl)-6-methylpyrimidin-4-yl)-1H-1,2,3-triazol-1-yl)-3-(6-azaspiro[2.5]octan-6-yl)phenyl)ethanesulfonamide], the IC50 was determined as 25 nM with NIH:OVCAR-3 cells, 18 nM with HCC15 cells, 32 nM against hKIF18A (1-374) and 24 nM in the assay with JIMT-1 cells.

Regarding `CCS(=O)(=O)Nc1ccc(-c2cn(-c3cccc(S(=O)(=O)NC(C)(C)C)c3)nn2)c(N2CCC3(CC2)CC3)c1` [Compound 110, N-(tert-butyl)-3-(4-(4-(ethylsulfonamido)-2-(6-azaspiro[2.5]octan-6-yl)phenyl)-1H-1,2,3-triazol-1-yl)benzenesulfonamide], the IC50 came out at 4.4 nM with NIH:OVCAR-3 cells, 3.3 nM in the assay on HCC15 cells, 15 nM on hKIF18A (1-374) and 6.8 nM with JIMT-1 cells.

For `CCS(=O)(=O)Nc1ccc(-n2cc(-c3cccc(S(=O)(=O)NC(C)(C)C)c3)nn2)c(N2CCC3(CC2)CC3)c1` [Compound 116, N-(tert-butyl)-3-(1-(4-(ethylsulfonamido)-2-(6-azaspiro[2.5]octan-6-yl)phenyl)-1H-1,2,3-triazol-4-yl)benzenesulfonamide], the half-inhibitory concentration (IC50) in the assay with NIH:OVCAR-3 cells turned out to be 3.9 nM; with HCC15 cells, 3.6 nM; at hKIF18A (1-374), 14 nM; with JIMT-1 cells, 6.3 nM.

Take `CCS(=O)(=O)Nc1cc(N2CCC3(CC2)CC3)c(-n2cc(-c3cccc(S(=O)(=O)NC(C)(C)C)c3)nn2)cc1F` [Compound 117, N-(tert-butyl)-3-(1-(4-(ethylsulfonamido)-5-fluoro-2-(6-azaspiro[2.5]octan-6-yl)phenyl)-1H-1,2,3-triazol-4-yl)benzenesulfonamide]: the IC50 in the assay on NIH:OVCAR-3 cells turned out to be 13 nM; with HCC15 cells, 10 nM; against hKIF18A (1-374), 20 nM; in the assay on JIMT-1 cells it was 14 nM.

For `O=S(=O)(CCO)Nc1ccc(-n2cc(-c3ccn(C4CCC(F)(F)CC4)n3)nn2)c(N2CCC3(CCC3)CC2)c1` [Compound 130, N-(4-(4-(1-(4,4-difluorocyclohexyl)-1H-pyrazol-3-yl)-1H-1,2,3-triazol-1-yl)-3-(7-azaspiro[3.5]nonan-7-yl)phenyl)-2-hydroxyethane-1-sulfonamide], the IC50 turned out to be 19 nM in the assay with NIH:OVCAR-3 cells, 12 nM in the assay with HCC15 cells, 5 nM at hKIF18A (1-374) and 29 nM with JIMT-1 cells.
